From patent publication US20050004163A1, “3-(diarylmethylene)-8-azabicyclo[3.2.1]octane derivatives” (priority 2000, published 2005) come the findings set out here.

Structures are written as SMILES. Structures can show the parent of a compound that is named as a salt.

T1 sequence (P33535 whole entry): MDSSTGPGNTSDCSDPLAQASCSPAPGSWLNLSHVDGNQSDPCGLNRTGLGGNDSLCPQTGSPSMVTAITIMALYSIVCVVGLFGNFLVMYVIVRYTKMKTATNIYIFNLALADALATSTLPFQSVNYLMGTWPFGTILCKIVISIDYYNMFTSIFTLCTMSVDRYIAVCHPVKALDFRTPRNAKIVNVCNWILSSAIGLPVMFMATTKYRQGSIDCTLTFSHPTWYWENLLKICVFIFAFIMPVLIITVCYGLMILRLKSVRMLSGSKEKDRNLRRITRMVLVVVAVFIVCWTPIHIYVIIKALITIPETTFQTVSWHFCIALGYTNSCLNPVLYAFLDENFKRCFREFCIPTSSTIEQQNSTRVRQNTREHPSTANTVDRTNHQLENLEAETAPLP

One assay has as its target T1, μ-opioid receptor (Rattus norvegicus, UniProt P33535).
T1 construct: the forebrains are homogenized in Tris buffer in a Teflon®-glass homogenizer; from tissue; host or cells: forebrain of male Wistar rats (particulate membrane preparation)
The experiment in a line: Rat brain μ-opioid receptor binding assay ([3H]DAMGO). As to conditions: 10 nM solutions of the compounds, read-out: MOR binding Ki. On the procedure: Rat Brain μ-Opioid Receptor Binding Assay
Male, Wistar rats (150-250 g, VAF, Charles River, Kingston, N.Y.) are killed by cervical dislocation and their brains removed and placed immediately in ice cold Tris HCl buffer (50 mM, pH 7.4). The forebrains are separated from the remainder of the brain by a coronal transection, beginning dorsally at the colliculi and passing ventrally through the midbrain-pontine junction. After dissection, the forebrains are homogenized in Tris buffer in a Teflon®-glass homogenizer. The homogenate is diluted to a concentration of 1 g of forebrain tissue per 100 mL Tris buffer and centrifuged at 39,000×G for 10 min. The pellet is resuspended in the same volume of Tris buffer with several brief pulses from a Polytron homogenizer. This particulate preparation is used for the μ-opioid binding assays. […] The tubes and filters are rinsed three times with 4 mL of 10 mM HEPES (pH 7.4) and the radioactivity associated with the filter circles determined using Formula 989 scintillation fluid (New England Nuclear, Boston, Mass.) in a scintillation counter.
The data are used to calculate either the % inhibition compared to control binding (when only a single concentration of test compound is evaluated) or a Ki value (when a range of concentrations is tested).
% Inhibition is calculated as follows: [formula]
Ki value is calculated using the LIGAND (Munson, P. J. and Rodbard, D., Anal. Biochem. 107: 220-239, 1980) data analysis program.
For the compound `CCNC(=O)c1ccc(C=C2CC3CCC(C2)N3Cc2ccc3ccccc3n2)cc1` [Cpd 35], the Ki (as a rule, the equilibrium dissociation constant of an inhibitor or competing ligand from its target) turned out to be 532 nM.
The same measure, in the same setting: next, `CCNC(=O)c1ccc(C=C2CC3CCC(C2)N3CCc2ccccc2)cc1` [Cpd 62]: 8.56 nM; `CCNC(=O)c1ccc(C(=C2CC3CCC(C2)N3C(=O)OCC)c2cc(C)c(O)c(C)c2)cc1` [Cpd 173, 3-[(4-Ethylcarbamoyl-phenyl)-(4-hydroxy-3,5-dimethyl-phenyl)-methylene]-8-aza-bicyclo[3.2.1]octane-8-carboxylic acid ethyl ester]: 2070 nM.
As for `CCNC(=O)c1ccc(C(=C2CC3CCC(C2)N3C(=O)OCC)c2ccc(O)c(OC)c2)cc1` [Cpd 172, 3-[(4-Ethylcarbamoyl-phenyl)-(4-hydroxy-3-methoxy-phenyl)-methylene]-8-aza-bicyclo[3.2.1]octane-8-carboxylic acid ethyl ester], the Ki was 713 nM.
Same read-out and setting: next, `CCNC(=O)c1ccc(C(=C2CC3CCC(C2)N3Cc2ccsc2)c2ccc3c(c2)OCO3)cc1` [Cpd 7]: 3.05 nM; `CCNC(=O)c1ccc(C=C2CC3CCC(C2)N3CCc2ccccc2O)cc1` [Cpd 86]: 19.3 nM; `CCNC(=O)c1ccc(C=C2CC3CCC(C2)N3Cc2ccc(Cl)s2)cc1` [Cpd 77]: 356 nM.
Consider `CCNC(=O)c1ccc(C=C2CC3CCC(C2)N3Cc2ncc[nH]2)cc1` [Cpd 32], for which the Ki stood at 385 nM.
Same read-out and setting: to `CCNC(=O)c1ccc(C(=C2CC3CCC(C2)N3Cc2nccs2)c2ccc(C(N)=O)cc2)cc1` [Cpd 188] belongs 491 nM.

The same assay, now with this note: MOR binding Ki.
`CCNC(=O)c1ccc(C(=C2CC3CCC(C2)N3Cc2ccco2)c2ccc(C(N)=O)cc2)cc1` [Cpd 180] displayed an inhibitory constant (Ki) of 10 nM.
On the same count and under the same terms, to `CCNC(=O)c1ccc(C(=C2CC3CCC(C2)N3Cc2nccs2)c2cc(N)cc(C(=O)O)c2)cc1` [Cpd 118] belongs 10000 nM.
On the same count and under the same terms, next, `CCN(CC)C(=O)c1ccc(C=C2CC3CCC(C2)N3)cc1` [Cpd 48, 4-(8-Aza-bicyclo[3.2.1]oct-3-ylidenemethyl)-N,N-diethylbenzamide]: 25800 nM; `CCNC(=O)c1ccc(C(Br)=C2CC3CCC(C2)N3Cc2ccoc2)cc1` (single isomer, unassigned) [Cpd 212]: 38.5 nM.
Still for that read-out and setting: to `CCNC(=O)c1ccc(C(=C2CC3CCC(C2)N3Cc2ccoc2)c2cnc3ccccc3c2)cc1` [Cpd 17] belongs 20.3 nM; to `CCNC(=O)c1ccc(C(=C2CC3CCC(C2)N3Cc2ccoc2)c2cccc(CN)c2)cc1` [Cpd 153], 71.1 nM; to `CCNC(=O)c1ccc(C(=C2CC3CCC(C2)N3Cc2ccsc2)c2ccc(CCC(=O)O)cc2)cc1` [Cpd 129], 6.73 nM.
In turn, `CCN(CC)C(=O)c1ccc(C(=C2CC3CCC(C2)N3C=O)c2ccccc2)cc1` [Cpd 199] gave a Ki of 5340 nM.
On the same count and under the same terms, next, `CCNC(=O)c1ccc(C(=C2CC3CCC(C2)N3Cc2ccco2)c2ccc(CCC(=O)O)cc2)cc1` [Cpd 125]: 47.6 nM; `CCNC(=O)c1ccc(C(=C2CC3CCC(C2)N3CCc2ccccc2)c2cccc(C(=O)O)c2)cc1` [Cpd 83]: 17.2 nM.
On the same count and under the same terms, to `CCNC(=O)c1ccc(C(=C2CC3CCC(C2)N3CCc2ccccc2)c2cccc(-c3nnn[nH]3)c2)cc1` [Cpd 166] belongs 50.3 nM.
Still for that read-out and setting: to `CCN(CC)C(=O)c1ccc(C(Br)=C2CC3CCC(C2)N3)cc1` [Cpd 49, 4-[(8-Aza-bicyclo[3.2.1]oct-3-ylidene)-bromo-methyl]-N,N-diethylbenzamide] belongs 100000 nM; to `CCNC(=O)c1ccc(C(=C2CC3CCC(C2)N3Cc2ccco2)c2ccc(CO)cc2)cc1` [Cpd 192], 18.6 nM.
For the compound `CCNC(=O)c1ccc(C=C2CC3CCC(C2)N3CC(N)Cc2ccccc2)cc1` (stereo not shown) [Cpd 1, 4-[8-(2-Amino-3-phenyl-propyl)-8-aza-bicyclo[3.2.1]oct-3-ylidenemethyl]-N-ethyl-benzamide Hydrochloride], the Ki is 340 nM.
The same measure, in the same setting: to `CCN(CC)C(=O)c1ccc(C(Br)=C2CC3CCC(C2)N3CCc2ccccc2)cc1` [Cpd 89, 4-[Bromo-(8-phenethyl-8-azabicyclo[3.2.1]oct-3-ylidene)-methyl]-N,N-diethylbenzamide] belongs 1010 nM.
In the case of `CCNC(=O)c1ccc(C(=C2CC3CCC(C2)N3Cc2[nH]cnc2C)c2ccc3c(c2)OCO3)cc1` [Cpd 11], the Ki was 46.2 nM.
On the same count and under the same terms, to `CCNC(=O)c1ccc(C(=C2CC3CCC(C2)N3)c2nnn[nH]2)cc1` [Cpd 151] belongs 1.76 nM.
`CCNC(=O)c1ccc(C(Br)=C2C[C@H]3CC[C@@H](C2)N3)cc1` (single isomer, unassigned) [Cpd 92] showed a Ki of 115 nM.
Take `CCNC(=O)c1ccc(C(=C2CC3CCC(C2)N3Cc2ccsc2)c2ccc(C(N)=O)cc2)cc1` [Cpd 191]: the affinity, expressed as Ki, was 22.1 nM.
As for `CCNC(=O)c1ccc(C(=C2CC3CCC(C2)N3Cc2nccs2)c2cccc(CO)c2)cc1` [Cpd 186], the Ki is 28.6 nM.
`CCNC(=O)c1ccc(C=C2CC3CCC(C2)N3Cc2[nH]cnc2C)cc1` [Cpd 37]: affinity was put at a Ki of 1470 nM.
The same measure, in the same setting: next, `CCNC(=O)c1ccc(C(=C2CC3CCC(C2)N3Cc2nccs2)c2cccc(-c3nnn[nH]3)c2)cc1` [Cpd 167]: 5.35 nM.
The same measure, in the same setting: to `CCNC(=O)c1ccc(C(=C2CC3CCC(C2)N3Cc2ccsc2)c2ccc(NS(C)(=O)=O)cc2)cc1` [Cpd 190] belongs 0.717 nM.
On the same count and under the same terms, to `CCNC(=O)c1ccc(C(=C2CC3CCC(C2)N3Cc2ccccn2)c2cccc(C(=O)O)c2)cc1` [Cpd 82] belongs 375 nM.
In turn, `CCNC(=O)c1ccc(C=C2CC3CCC(C2)N3Cc2ccco2)cc1` [Cpd 34] showed a Ki of 1420 nM.
Still for that read-out and setting: next, `CCNC(=O)c1ccc(C(=C2CC3CCC(C2)N3Cc2ccc3ccccc3n2)c2cccc(C(=O)O)c2)cc1` [Cpd 85]: 537 nM.
Still for that read-out and setting: to `CCNC(=O)c1ccc(C(=C2CC3CCC(C2)N3Cc2nccs2)c2cccc(C(=O)O)c2)cc1` [Cpd 102] belongs 1320 nM; to `CCNC(=O)c1ccc(C(=C2CC3CCC(C2)N3Cc2nccs2)c2ccc(CCC(=O)O)cc2)cc1` [Cpd 132], 164 nM; to `CCNC(=O)c1ccc(C=C2CC3CCC(C2)N3Cc2nccs2)cc1` [Cpd 133], 581 nM.
The same measure, in the same setting: next, `CCNC(=O)c1ccc(C(=C2CC3CCC(C2)N3CCc2ccccc2)c2ccc([N+](=O)[O-])cc2)cc1` [Cpd 134]: 7.57 nM; `CCNC(=O)c1ccc(C(=C2CC3CCC(C2)N3Cc2ccoc2)c2ccc(S(N)(=O)=O)cc2)cc1` [Cpd 138]: 49.5 nM.
As for `CCNC(=O)c1ccc(C(C#N)=C2CC3CCC(C2)N3Cc2ccoc2)cc1` (single isomer, unassigned) [Cpd 209], the Ki came to 2.59 nM.
On the same count and under the same terms, to `CCNC(=O)c1ccc(C=C2CC3CCC(C2)N3Cc2ccsc2)cc1` [Cpd 33] belongs 198 nM; to `CCNC(=O)c1ccc(C(=C2CC3CCC(C2)N3Cc2csc([N+](=O)[O-])c2)c2cccc(C(C)=O)c2)cc1` [Cpd 76], 184 nM; to `CCNC(=O)c1ccc(C(=C2CC3CCC(C2)N3Cc2sccc2C)c2cnc3ccccc3c2)cc1` [Cpd 18], 561 nM.
Still for that read-out and setting: next, `CCN(CC)C(=O)c1ccc(C(=C2CC3CCC(C2)N3C#N)c2ccccc2)cc1` [Cpd 197, 4-[(8-cyano-8-aza-bicyclo[3.2.1]oct-3-ylidene)-phenyl-methyl]-N,N-diethylbenzamide]: 10000 nM; `CCNC(=O)c1ccc(C(=C2CC3CCC(C2)N3Cc2ccc3ccccc3n2)c2ccc(C(=O)O)cc2)cc1` [Cpd 100]: 147 nM.
